# Reference: PMC11141866, “Pyrimidine depletion enhances targeted and immune therapy combinations in acute myeloid leukemia” (JCI Insight, 2024)
# Values joined by “and” are separate entries in the source; they are usually repeats but may differ in a detail not shown here. Equal values may be shown once.
# Experiments:
# [1] = test system: THP1; assay: MTS proliferation assay, THP1; assay type: cell-based; conditions: Homo sapiens, THP-1; THP1, 96-hour treatment; read-out: IC50 (MTS proliferation)
# Protocol: (§1) A total of 10,000–20,000 cells from different AML lines or 50,000–75,000 cells of primary AML blasts were treated in a 96-well plate for 72 hours or 96 hours at 37°C, 5% CO2. CellTiter 96 Aqueous MTS reagent (Promega) was added to cells followed by a 3-hour incubation at 37°C, 5% CO2. The absorbance was measured at 490 nm using DTX 880 plate reader, and the IC50 was calculated using GraphPad Prism.
# [2] = test system: primary AML patient samples; assay: Flow cytometry viability, primary AML long-term culture; assay type: cell-based, human
# Protocol: (§2) Cells were thawed in 50% FBS RPMI and then cultured in StemSpan (StemCell Technologies) media supplemented with human FLT3L, SCF, GM-CSF, G-CSF, IL-3, IL-6, TPO, and EPO cytokines for 7 days (LTC).
# (§3) After 72 hours or 7 days of treatment of DHODHi, cells were collected and washed with PBS, blocked with human Fc block (BioLegend), and stained with antibodies for 30 minutes on ice. Antibodies were washed off and cells resuspended in FACS buffer (2% FBS, 2 mM NaN3, Dulbecco’s PBS) for analysis using BD LSRFortessa or Cytek Aurora spectral flow cytometer. Live/dead exclusion was done using LIVE/DEAD Fixable Near-IR (Invitrogen). All antibodies were purchased from BioLegend except CD47, which was purchased from BD Biosciences: CD11b clone M1/70, CD38 clone HIT2, CD14 clone M5E2, CD47 clone B6H12, CD33 clone WM53, CD3 clone UCHT1, CD19 clone HIB19, and CD45 clone HI30.
# Supplemental Figure S.2. […] A).
# Flow cytometry analysis of viable primary AML patient samples (n=10) treated in vitro for seven days
# (long term culture, LTC). […]
# [3] = test system: primary AML patient samples; assay: Flow cytometry CD47 surface expression, primary AML samples; assay type: cell-based, human; conditions: 50nM
# Protocol: as §2, §3
# Supplemental Figure S.8. DHODHi modulates CD47 surface antigen expression. A) Representative flow cytometry overlay histogram plot for CD47 surface expression in MV4-11 cell line following a 72- […]
# supplementation (experiment was done five independent times). B) Flow cytometry analysis of CD47 surface expression in primary AML patient samples (n=8-10) treated in vitro for seven days (long term culture, LTC). Data is shown as mean florescent intensity (MFI) of CD47 gated on live CD45+CD3-CD19- cells, error bars indicate mean with 95% confidence interval. C) Representative flow cytometry […]
# modulation of CD47 post DHODHi treatment.
# (1 picture or pasted object on this page, not shown here)
# [4] = test system: MOLM-13 disseminated CDX AML model; assay: MOLM-13 CDX synergy with azacitidine / venetoclax; assay type: in vivo, NCG mice; conditions: HOSU-53 4 mg/kg po qd; event 1 = death, 0 = censored; 4 mg/kg
# Protocol: Female 8- to 12-week-old NCG mice were engrafted with 1 × 10^5 cells via tail vein i.v. injection. Four days postengraftment (day 1 of treatment), mice (n = 10/arm) were randomized to receive p.o. qd vehicle (40% HPβCD, n = 10; or 60% Phosal 50 PG, 30% PEG 400, and 10% ethanol, n = 10), 4 mg/kg HOSU-53, 25 mg/kg ven, or i.p. 1.5 mg/kg aza on a 5 days on/16 days off cycle, combinations of double regimens and triple regimens till moribundity or end of study, day 53.
# Supplemental Figure S.4. […] Using the FLT3 […]
# were enrolled to receive daily oral 4 mg/kg HOSU-53 to compare its monotherapy efficacy with daily oral 25 mg/kg venetoclax (ven) monotherapy or 1.5 mg/kg azacitidine (aza) HMA i.p. for five days every 16 days cycle monotherapy or the combination of aza/ven versus ven/ HOSU-53 versus aza/HOSU-53 versus the triple aza/ven/HOSU-53 regimen.
# [5] = HOSU-53 plasma exposure in MOLM-13 tumor-bearing mice; assay type: in vivo, NCG mice; conditions: 10 mpk PO, female mice, per mouse, 10 mg/kg
# [6] = Micronucleus Test; conditions: 5 strain test with S9 activation (so in the source)
# From the text: (§4) Supplement jciinsight-9-173646-s083.xlsx, sheet "Supplemental Table S.2." | column: HOSU-53
# [7] = molecular target: CYP 2C8 (Homo sapiens, UniProt P10632); assay: CYP inhibition 2C8; assay type: in vitro ADME
# From the text: as §4
# [8] = test system: U937; assay: MTS proliferation assay, U937; assay type: cell-based; conditions: Homo sapiens, U-937; U937, 96-hour treatment; read-out: IC50 (MTS proliferation)
# Protocol: as §1
# [9] = Mini-Ames Mutagenicity Test; conditions: CHO-WBL cells with and without S9 activation (so in the source)
# From the text: as §4
# [10] = molecular target: HSA (Homo sapiens, UniProt P02768); assay: Protein binding, HSA; assay type: in vitro ADME; conditions: 4% HSA
# From the text: as §4
# [11] = molecular target: Mouse DHODH (Mus musculus, UniProt O35435); assay: Cell-free multi-species DHODH enzyme inhibition assay, mouse; assay type: biochemical; conditions: n=1
# [12] = molecular target: hERG (Homo sapiens, UniProt Q12809); assay: hERG (Q-Patch); assay type: cell-based
# From the text: as §4
# Sequence of CYP 2C8 (P10632 whole entry): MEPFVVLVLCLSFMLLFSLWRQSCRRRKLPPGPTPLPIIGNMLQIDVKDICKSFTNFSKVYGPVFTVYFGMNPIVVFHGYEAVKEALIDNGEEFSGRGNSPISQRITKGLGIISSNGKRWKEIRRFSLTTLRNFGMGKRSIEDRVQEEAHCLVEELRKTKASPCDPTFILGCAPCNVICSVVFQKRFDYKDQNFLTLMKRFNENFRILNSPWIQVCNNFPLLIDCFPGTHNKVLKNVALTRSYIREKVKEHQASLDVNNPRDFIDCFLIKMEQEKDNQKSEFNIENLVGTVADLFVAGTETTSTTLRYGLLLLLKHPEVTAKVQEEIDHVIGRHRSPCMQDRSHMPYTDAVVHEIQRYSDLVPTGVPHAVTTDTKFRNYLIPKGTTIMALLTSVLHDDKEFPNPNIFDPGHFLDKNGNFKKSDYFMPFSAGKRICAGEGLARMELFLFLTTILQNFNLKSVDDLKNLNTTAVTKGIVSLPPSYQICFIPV
# Sequence of HSA (P02768 25-609): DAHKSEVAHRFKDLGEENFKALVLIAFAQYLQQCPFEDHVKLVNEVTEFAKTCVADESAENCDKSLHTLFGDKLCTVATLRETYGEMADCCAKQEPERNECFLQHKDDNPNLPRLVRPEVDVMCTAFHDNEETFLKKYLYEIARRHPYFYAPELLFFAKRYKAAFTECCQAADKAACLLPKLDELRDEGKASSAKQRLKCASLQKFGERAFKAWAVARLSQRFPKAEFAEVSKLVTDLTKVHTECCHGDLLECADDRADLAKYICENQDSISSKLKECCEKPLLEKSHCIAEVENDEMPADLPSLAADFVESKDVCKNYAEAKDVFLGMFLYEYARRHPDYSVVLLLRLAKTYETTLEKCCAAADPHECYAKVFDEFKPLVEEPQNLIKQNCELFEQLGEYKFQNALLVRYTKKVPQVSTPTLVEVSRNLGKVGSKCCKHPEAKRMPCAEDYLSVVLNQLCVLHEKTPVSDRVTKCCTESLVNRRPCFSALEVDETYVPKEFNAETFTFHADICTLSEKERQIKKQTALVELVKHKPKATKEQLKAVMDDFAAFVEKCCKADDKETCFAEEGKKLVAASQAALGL
# Sequence of Mouse DHODH (O35435 whole entry): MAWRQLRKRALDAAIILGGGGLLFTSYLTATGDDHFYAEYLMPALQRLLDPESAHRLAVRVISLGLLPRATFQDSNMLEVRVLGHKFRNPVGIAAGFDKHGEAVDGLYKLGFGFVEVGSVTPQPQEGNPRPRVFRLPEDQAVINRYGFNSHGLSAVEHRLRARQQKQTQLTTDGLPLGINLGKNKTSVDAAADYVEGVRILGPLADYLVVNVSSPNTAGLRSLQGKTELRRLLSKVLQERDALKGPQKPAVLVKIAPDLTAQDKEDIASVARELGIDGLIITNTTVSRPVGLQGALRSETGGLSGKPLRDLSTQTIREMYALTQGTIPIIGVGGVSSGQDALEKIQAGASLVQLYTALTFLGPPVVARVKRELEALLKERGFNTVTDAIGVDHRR
# Sequence of hERG (Q12809 whole entry): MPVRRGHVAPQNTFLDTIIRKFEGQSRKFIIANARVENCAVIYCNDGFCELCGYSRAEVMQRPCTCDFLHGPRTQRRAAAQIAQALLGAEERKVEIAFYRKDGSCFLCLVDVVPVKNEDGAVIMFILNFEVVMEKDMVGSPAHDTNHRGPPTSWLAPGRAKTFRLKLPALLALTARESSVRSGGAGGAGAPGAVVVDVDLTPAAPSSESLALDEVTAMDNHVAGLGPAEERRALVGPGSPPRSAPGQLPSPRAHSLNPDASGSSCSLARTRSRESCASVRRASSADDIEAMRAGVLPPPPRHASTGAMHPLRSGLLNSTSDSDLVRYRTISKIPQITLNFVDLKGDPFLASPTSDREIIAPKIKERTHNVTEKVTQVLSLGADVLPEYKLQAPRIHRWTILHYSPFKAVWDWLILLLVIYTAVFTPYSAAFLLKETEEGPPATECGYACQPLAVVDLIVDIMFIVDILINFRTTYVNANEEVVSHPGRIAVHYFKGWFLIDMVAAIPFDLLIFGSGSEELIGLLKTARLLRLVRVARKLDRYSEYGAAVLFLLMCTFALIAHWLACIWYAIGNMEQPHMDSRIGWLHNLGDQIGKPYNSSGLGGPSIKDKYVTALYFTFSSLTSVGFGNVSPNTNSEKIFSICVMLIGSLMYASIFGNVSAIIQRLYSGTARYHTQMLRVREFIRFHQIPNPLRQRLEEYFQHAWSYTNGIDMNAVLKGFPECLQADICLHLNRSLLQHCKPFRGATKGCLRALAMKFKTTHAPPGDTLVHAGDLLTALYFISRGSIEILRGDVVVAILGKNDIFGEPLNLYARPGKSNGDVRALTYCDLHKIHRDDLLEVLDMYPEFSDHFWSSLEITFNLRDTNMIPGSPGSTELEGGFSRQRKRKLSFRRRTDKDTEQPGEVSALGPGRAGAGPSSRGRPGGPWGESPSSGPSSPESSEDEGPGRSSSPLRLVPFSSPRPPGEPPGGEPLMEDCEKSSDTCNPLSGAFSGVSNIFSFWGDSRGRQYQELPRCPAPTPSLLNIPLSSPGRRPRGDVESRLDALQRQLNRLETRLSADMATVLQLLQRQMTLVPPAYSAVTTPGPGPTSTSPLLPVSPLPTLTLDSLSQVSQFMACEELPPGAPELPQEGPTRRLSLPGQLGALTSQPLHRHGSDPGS
structure (smiles),measurement,setting,value
CCCCOc1cccc(-c2ccc(-c3cc(C(=O)O)c4cc(F)ccc4n3)cc2)c1 [HOSU-53],IC50,[1],0.05 µM
same,% Live (Near-IR negative),"[2]; Pt.12, 50nM, DMSO 56.46",60.99%
same,% Live (Near-IR negative),"[2]; Pt.12, 100nM, DMSO 56.46",59.36%
same,% Live (Near-IR negative),"[2]; Pt.13, 50nM, DMSO 72.92",72.53%
same,% Live (Near-IR negative),"[2]; Pt.13, 100nM, DMSO 72.92",66.43%
same,% Live (Near-IR negative),"[2]; Pt.14, 50nM, DMSO 68.39",70.9%
same,% Live (Near-IR negative),"[2]; Pt.14, 100nM, DMSO 68.39",55.21%
same,% Live (Near-IR negative),"[2]; Pt.15, 50nM, DMSO 61.7",41.58%
same,% Live (Near-IR negative),"[2]; Pt.15, 100nM, DMSO 61.7",27.92%
same,% Live (Near-IR negative),"[2]; Pt.16, 50nM, DMSO 45.99",41.34%
same,% Live (Near-IR negative),"[2]; Pt.16, 100nM, DMSO 45.99",32.16%
same,% Live (Near-IR negative),"[2]; Pt.17, 50nM, DMSO 29.84",29.21%
same,% Live (Near-IR negative),"[2]; Pt.17, 100nM, DMSO 29.84",25.94%
same,% Live (Near-IR negative),"[2]; Pt.18, 50nM, DMSO 29.72",26.96%
same,% Live (Near-IR negative),"[2]; Pt.18, 100nM, DMSO 29.72",23.34%
same,% Live (Near-IR negative),"[2]; Pt.19, 50nM, DMSO 75.66",74.9%
same,% Live (Near-IR negative),"[2]; Pt.19, 100nM, DMSO 75.66",58.74%
same,% Live (Near-IR negative),"[2]; Pt.20, 50nM, DMSO 67.67",44.64%
same,% Live (Near-IR negative),"[2]; Pt.20, 100nM, DMSO 67.67",42.59%
same,% Live (Near-IR negative),"[2]; Pt.2, 50nM, DMSO 78.52",59.04%
same,% Live (Near-IR negative),"[2]; Pt.2, 100nM, DMSO 78.52",32.63%
same,cell viability,"[2]; primary AML samples, 7 days LTC",reduced cell viability
same,CD47 MFI,"[3]; Pt.12, DMSO 1559.17",2087.23
same,CD47 MFI,"[3]; Pt.13, DMSO 1665.27",1161.83
same,CD47 MFI,"[3]; Pt.14, DMSO 585.79",749.14
same,CD47 MFI,"[3]; Pt.15, DMSO 1002.16",904.23
same,CD47 MFI,"[3]; Pt.16, DMSO 1349.33",1418.1
same,CD47 MFI,"[3]; Pt.17, DMSO 334.61",360.19
same,CD47 MFI,"[3]; Pt.18, DMSO 869.17",1060.36
same,CD47 MFI,"[3]; Pt.19, DMSO 364.4",532.16
same,CD47 MFI,"[3]; Pt.20, DMSO 398.54",525.38
same,CD47 MFI,"[3]; Pt.2, DMSO 446.9",436.9
same,"Days of treatment (survival, per animal)",[4],42 days and 40 days and 37 days and 41 days
same,HOSU-53 AUCall,[5]; Day 1,2462.63 µM·h and 1961.3 µM·h
same,HOSU-53 AUCall,[5]; Day 14,3818.57 µM·h and 3432.74 µM·h
same,Micronucleus Test,[6],Negative
same,IC50,[7],1.82 µM
same,IC50,[8],0.033 µM
same,Mini-Ames Mutagenicity Test,[9],Negative
same,fraction unbound,[10],< 0.01
same,IC50,[11],0.0021 µM
same,IC50,[12],> 30 µM
